Source: ChEMBL document CHEMBL1149690, “Membrane permeable esterase-activated fluorescent imaging probe” (Bioorg Med Chem Lett, 2007)

What was measured:
[1] = Chemical stability assessed as hydrolysis at pH 3 to 9 after 1.5 hrs; type: physicochemical; details: buffer, pH 3, 1.5 h
[2] = Chemical stability assessed as hydrolysis at pH below 1; type: physicochemical
[3] = Chemical stability assessed as hydrolysis at pH more than 10; type: physicochemical
[4] = Photostability after 30 mins assessed by fluorescence intensity; type: ADME; details: 0.5 h

| Structure (SMILES) | Activity [1] | Activity [2] | Activity [3] | Fluorescence intensity [4] |
| --- | --- | --- | --- | --- |
| CCCN1/C(=C/C=C2\CCCC(/C=C/C3=[N+](CCC)c4ccccc4C3(C)C)=C2OC(C)=O)C(C)(C)c2ccccc21.[I-] | Not Active | Active | Active |  |
| CCCN1/C(=C/C=C2\CCC/C(=C\C=C3\N(CCC)c4ccccc4C3(C)C)C2=O)C(C)(C)c2ccccc21 |  |  |  | < 15% |
